Paper PMC9147789, “Development and Validation of a Novel LC-MS/MS Method for the Simultaneous Determination of Abemaciclib, Palbociclib, Ribociclib, Anastrozole, Letrozole, and Fulvestrant in Plasma Samples: A Prerequisite for Personalized Breast Cancer Treatment” (Pharmaceuticals, 2022)

Assays:
[1] = Stability of the analytes in plasma (bench top, autosampler, freeze-thaw, long-term); type: physicochemical, human; conditions: for Stability Bias (%) 1 FT Cycle (30 min, −18–25 °C) / Stability Bias (%) 2 FT Cycles (30 min, −18–25 °C) / Stability Bias (%) 3 FT Cycles (30 min, −18–25 °C) / Stability Bias (%) Long-Term (2 Weeks, −18 °C): plasma; for Stability Bias (%) 1 FT Cycle (30 min, −18–25 °C) / Stability Bias (%) 2 FT Cycles (30 min, −18–25 °C) / Stability Bias (%) 3 FT Cycles (30 min, −18–25 °C) / Stability Bias (%) Long-Term (2 Weeks, −18 °C) / Stability Bias (%) Autosampler (10 h, 10 °C): N = 3; for Stability Bias (%) Autosampler (10 h, 10 °C): processed plasma sample; for Stability Bias (%) Bench Top (2 h, 25 °C): unprocessed plasma, N = 3, vs fresh QC
Description: Stability of the stock and working solutions was determined in the preliminary studies. […] Patient plasma samples were stored long-term at −80 °C. Since adequate stability of plasma samples was proven at −18 °C, it was deemed acceptable at lower temperatures as well. Lower- and higher-concentration QC samples were prepared in triplicate for each condition and time point and were analyzed against QC samples freshly prepared in triplicate.

[2] = plasma; cited from earlier work
[3] = LC-MS/MS quantitation of drugs in single-point patient plasma samples (therapeutic drug monitoring); type: in vivo, human
Description: Samples from ten women (ages 35 to 78, median 50.5 years) receiving regular treatment with a combination of a CDK4/6 inhibitor (PAL, RIB or ABE) and endocrine therapy (ANA, LET, FUL or exemestane, EXE) were obtained and analyzed using this LC-MS method. The samples were mostly taken in the elimination phase, during the patients’ regular visit to the hospital before the next dose administration, except in the case of patient 4 (sampling 1 h after dose administration). The aromatase inhibitors and ABE are continuously administered as single daily doses, FUL is a once-monthly intramuscular injection, and the dosing regimen of PAL and RIB involves a week off treatment every 21 days to minimize treatment-induced neutropenia.
The samples were analyzed against freshly prepared calibration curves. The results are listed in Table 7, while the accompanying chromatograms and mass spectra are included in the Supplementary Materials, Section 1, Figures S1–S29.
Healthy and patient blood samples were collected and pre-treated at the University Hospital Centre Zagreb, with signed informed consent. Patients receiving a combination of a CDK4/6 inhibitor and endocrine therapy as regular treatment for at least 4 months were enrolled.
Whole blood was collected in containers with K2-EDTA anticoagulant and centrifuged for 10 min at 1500 g; the supernatant was then withdrawn and stored at −18 °C (blank plasma) or −80 °C (patients’ plasma). Hemolyzed plasma was obtained by briefly freezing a whole blood sample at −18 °C before continuing with the procedure.
Calibration and QC samples were prepared by diluting 5 µL of the appropriate working solutions of the analytes with 45 µL of blank plasma in 1.5 mL polypropylene centrifuge tubes. In case of patient sample analysis, an aliquot of 50 µL of patient plasma was used. Proteins were precipitated by adding 200 µL of ACN, after which the samples were vortex-mixed for 10 s and centrifuged at 2000 g for 5 min. The resulting supernatant was collected and 200 µL was evaporated to dryness in a vacuum evaporator at room temperature. The dry residue was dissolved in 40 µL of 65% methanol, while 5 µL was injected into the chromatographic system.

[4] = higher QC level (RIB 2500, ABE 1500, PAL 250, ANA 100, LET 250, FUL 500 ng/mL)
[5] = lower QC level (RIB 62.5, ABE 37.5, PAL 6.2, ANA 2.5, LET 6.25, FUL 12.5 ng/mL)

CC(=O)c1c(C)c2cnc(Nc3ccc(N4CCNCC4)cn3)nc2n(C2CCCC2)c1=O [PAL, palbociclib]
Stability Bias (%) 1 FT Cycle (30 min, −18–25 °C) [1, 4]: 6.35% | Stability Bias (%) 2 FT Cycles (30 min, −18–25 °C) [1, 4]: −1.65% | Stability Bias (%) 3 FT Cycles (30 min, −18–25 °C) [1, 4]: −7.90% | Stability Bias (%) Long-Term (2 Weeks, −18 °C) [1, 4]: −3.08% | Stability Bias (%) 1 FT Cycle (30 min, −18–25 °C) [1, 5]: 14.97% | Stability Bias (%) 2 FT Cycles (30 min, −18–25 °C) [1, 5]: 1.86% | Stability Bias (%) 3 FT Cycles (30 min, −18–25 °C) [1, 5]: 2.81% | Stability Bias (%) Long-Term (2 Weeks, −18 °C) [1, 5]: 12.29% | Stability Bias (%) Autosampler (10 h, 10 °C) [1, 4]: 14.95% | Stability Bias (%) Autosampler (10 h, 10 °C) [1, 5]: 13.69% | Stability Bias (%) Bench Top (2 h, 25 °C) [1, 4]: −4.37% | Stability Bias (%) Bench Top (2 h, 25 °C) [1, 5]: 3.08% | Expected literature range Cmin–Cmax [2]: 72.8–185.5 [26] ng/mL | concentration at 27 day ([3]; human, plasma, patient 8, PAL 125 mg daily, sampling day 27 (off-treatment week)): 7.55 ng/mL | Plasma Concentration (ng/mL) ([3]; patient 9, PAL 125 mg daily, sampling day 28 (off-treatment week)): <LOQ | Plasma Concentration (ng/mL) ([3]; patient 10, PAL 125 mg daily, sampling day 23 (off-treatment week)): <LOD

CC(C)(C#N)c1cc(Cn2cncn2)cc(C(C)(C)C#N)c1 [ANA, anastrozole]
Stability Bias (%) 1 FT Cycle (30 min, −18–25 °C) [1, 4]: 6.65% | Stability Bias (%) 2 FT Cycles (30 min, −18–25 °C) [1, 4]: 8.39% | Stability Bias (%) 3 FT Cycles (30 min, −18–25 °C) [1, 4]: −0.69% | Stability Bias (%) Long-Term (2 Weeks, −18 °C) [1, 4]: −0.40% | Stability Bias (%) 1 FT Cycle (30 min, −18–25 °C) [1, 5]: −7.88% | Stability Bias (%) 2 FT Cycles (30 min, −18–25 °C) [1, 5]: −2.80% | Stability Bias (%) 3 FT Cycles (30 min, −18–25 °C) [1, 5]: −3.98% | Stability Bias (%) Long-Term (2 Weeks, −18 °C) [1, 5]: 3.09% | Stability Bias (%) Autosampler (10 h, 10 °C) [1, 4]: 4.89% | Stability Bias (%) Autosampler (10 h, 10 °C) [1, 5]: 2.27% | Stability Bias (%) Bench Top (2 h, 25 °C) [1, 4]: −0.62% | Stability Bias (%) Bench Top (2 h, 25 °C) [1, 5]: −10.33% | Expected literature range Cmin–Cmax [2]: 22–52.6 [27] ng/mL | Plasma Concentration ([3]; patient 5, ANA 1 mg daily): 43.96 ng/mL

C[C@]12CC[C@@H]3c4ccc(O)cc4C[C@@H](CCCCCCCCC[S+]([O-])CCCC(F)(F)C(F)(F)F)[C@H]3[C@@H]1CC[C@@H]2O (stereo partly shown) [FUL, fulvestrant]
Stability Bias (%) 1 FT Cycle (30 min, −18–25 °C) [1, 4]: 2.23% | Stability Bias (%) 2 FT Cycles (30 min, −18–25 °C) [1, 4]: 4.49% | Stability Bias (%) 3 FT Cycles (30 min, −18–25 °C) [1, 4]: −7.51% | Stability Bias (%) Long-Term (2 Weeks, −18 °C) [1, 4]: −1.62% | Stability Bias (%) 1 FT Cycle (30 min, −18–25 °C) [1, 5]: −14.59% | Stability Bias (%) 2 FT Cycles (30 min, −18–25 °C) [1, 5]: −13.24% | Stability Bias (%) 3 FT Cycles (30 min, −18–25 °C) [1, 5]: −8.90% | Stability Bias (%) Long-Term (2 Weeks, −18 °C) [1, 5]: −5.01% | Stability Bias (%) Autosampler (10 h, 10 °C) [1, 4]: −8.06% | Stability Bias (%) Autosampler (10 h, 10 °C) [1, 5]: 7.38% | Stability Bias (%) Bench Top (2 h, 25 °C) [1, 4]: 2.32% | Stability Bias (%) Bench Top (2 h, 25 °C) [1, 5]: −9.36% | Expected literature range Cmin–Cmax [2]: 16–25 [29] ng/mL | Plasma Concentration ([3]; patient 7, FUL 500 mg monthly, intramuscular): 20.73 ng/mL | Plasma Concentration ([3]; patient 8, FUL 500 mg monthly, intramuscular): 22.69 ng/mL | Plasma Concentration ([3]; patient 9, FUL 500 mg monthly, intramuscular): 22.13 ng/mL | Plasma Concentration ([3]; patient 10, FUL 500 mg monthly, intramuscular): 24.56 ng/mL

N#Cc1ccc(C(c2ccc(C#N)cc2)n2cncn2)cc1 [LET, letrozole]
Stability Bias (%) 1 FT Cycle (30 min, −18–25 °C) [1, 4]: 2.07% | Stability Bias (%) 2 FT Cycles (30 min, −18–25 °C) [1, 4]: −0.26% | Stability Bias (%) 3 FT Cycles (30 min, −18–25 °C) [1, 4]: −7.61% | Stability Bias (%) Long-Term (2 Weeks, −18 °C) [1, 4]: −7.75% | Stability Bias (%) 1 FT Cycle (30 min, −18–25 °C) [1, 5]: −0.06% | Stability Bias (%) 2 FT Cycles (30 min, −18–25 °C) [1, 5]: −6.52% | Stability Bias (%) 3 FT Cycles (30 min, −18–25 °C) [1, 5]: −3.50% | Stability Bias (%) Long-Term (2 Weeks, −18 °C) [1, 5]: −10.44% | Stability Bias (%) Autosampler (10 h, 10 °C) [1, 4]: −0.29% | Stability Bias (%) Autosampler (10 h, 10 °C) [1, 5]: 6.11% | Stability Bias (%) Bench Top (2 h, 25 °C) [1, 4]: 6.16% | Stability Bias (%) Bench Top (2 h, 25 °C) [1, 5]: −6.81% | Expected literature range Cmin–Cmax [2]: 28.4–349.2 [28] ng/mL | concentration at 1 h ([3]; human, plasma, patient 4, LET 2.5 mg daily, 1 h after dose administration): 139 ng/mL | Plasma Concentration ([3]; patient 1, LET 2.5 mg daily): 109.99 ng/mL | Plasma Concentration ([3]; patient 2, LET 2.5 mg daily): 141.11 ng/mL | Plasma Concentration ([3]; patient 3, LET 2.5 mg daily): 146.21 ng/mL
